Experimental data taken from PMC8001898, “New Triterpene Glycosides from the Far Eastern Starfish Solaster pacificus and Their Biological Activity” (Biomolecules, 2021).
Where two headings read alike, the source gives them in different places.

What was measured:
[1] = system: colorectal carcinoma HT-29 cells; assay: Soft agar colony formation assay, HT-29 cells; format: cell-based, human; details: for colony growth of HT-29 cells (in words): concentrations of 0.5 µM and 1 µM; for colony growth of HT-29 cells (in words) / decrease of number of colonies of HT-29: soft agar; for colony formation of HT-29 cells (in words): nontoxic concentration of 0.5 µM; for decrease of number of colonies of HT-29: 1 µM, 14 days
Protocol: (§1) Compounds 1–6 were dissolved in sterile DMSO to prepare stock concentrations of 20 mM. Cells were treated with serially diluted compounds 1–6 (culture medium used as diluent) to give the intended final concentrations. The vehicle control is the cells treated with equivalent volume of DMSO (less than 0.5%) for all presented experiments.
(§2) Human cancer cells (2.4 × 10^4/mL) were seeded into 6-well plate and treated with compounds 1–6 (0.1, 0.5, and 1 µM) or cisplatin (3 µM) in 1 mL of 0.3% BME agar containing 10% FBS, 2 mM L-glutamine, and 25 µg/mL gentamicin. The cultures were maintained in a 37 °C, 5% CO2 incubator for 14 days, and the cell colonies were scored using a Motic microscope AE 20 (XiangAn, Xiamen, China) and ImageJ software bundled with 64-bit Java 1.8.0_112 (NIH, Bethesda, MD, USA).
(§3) Figure 3 Effect of compounds 1–6 on colony formation of human colorectal carcinoma HT-29, melanoma RPMI-7951, and breast cancer MDA-MB-231 cell lines. HT-29, RPMI-7951, and MDA-MB-231 cells (2.4 × 10^4 /mL) treated with/without investigated 1–6 (0.1, 0.5, and 1 µM) and subjected into a soft agar. The culture was maintained at 37 °C in a 5% CO2 atmosphere for 2 weeks. The colonies were counted under a microscope with the aid of the ImageJ software program (n = 6 for control and each compound, n—quantity of photos). The asterisks (* p < 0.05, ** p < 0.01, *** p < 0.001) indicate a significant decrease in colony formation in cells treated with compounds compared with the nontreated cells (control).

[2] = system: breast cancer MDA-MB-231 cells; assay: Soft agar colony formation assay, MDA-MB-231 cells; format: cell-based, human; details: for colony growth of MDA-MB-231 cells (in words): concentrations of 0.5 µM and 1 µM; for colony growth of MDA-MB-231 cells (in words) / decrease of number of colonies of MDA-MB-231: soft agar; for colony formation of MDA-MB-231 cells (in words): nontoxic concentration of 0.5 µM; for decrease of number of colonies of MDA-MB-231: 1 µM, 14 days
Protocol: as §1, §2, §3

[3] = system: melanoma RPMI-7951 cells; assay: MTS cell viability assay, RPMI-7951 cells; format: cell-based, human; details: read-out: Inhibiting Concentration, (IC50), RPMI-7951, a
Protocol: (§4) Human embryonic kidney HEK 293 cells (ATCC® no. CRL-1573™), colorectal carcinoma HT-29 cells (ATCC® no. HTB-38™), melanoma RPMI-7951 cells (ATCC® no. HTB-66), and breast cancer MDA-MB-231 cells (ATCC® HTB-26™) were obtained from the American Type Culture Collection (Manassas, VA, USA). […] The cell cultures were maintained at 37 °C in humidified atmosphere containing 5% CO2. […] After three passages the cells were used for the experiments. […] Then samples were vacuum evaporated and dissolved in DMSO to their stock concentrations of 20 mM. Cells (1.0 × 10^4) were seeded in 96-well plates (Jet Biofil, Guangzhou, China) and cultured in 200 µL of complete culture medium for 24 h at 37 °C in 5% CO2 incubator.

[4] = system: breast cancer MDA-MB-231 cells; assay: MTS cell viability assay, MDA-MB-231 cells; format: cell-based, human; details: read-out: Inhibiting Concentration, (IC50), MDA-MB-231, a
Protocol: as §4

[5] = system: colorectal carcinoma HT-29 cells; assay: MTS cell viability assay, HT-29 cells; format: cell-based, human; details: read-out: Inhibiting Concentration, (IC50), HT-29, a
Protocol: as §4

[6] = system: human embryonic kidney HEK 293 cells; assay: MTS cell viability assay, HEK 293 cells; format: cell-based; details: read-out: Inhibiting Concentration, (IC50), HEK 293, a
Protocol: as §4

[7] = system: melanoma RPMI-7951 cells; assay: Soft agar colony formation assay, RPMI-7951 cells; format: cell-based, human; details: for colony growth of RPMI-7951 cells (in words): concentrations of 0.5 µM and 1 µM; for colony growth of RPMI-7951 cells (in words) / decrease of number of colonies of RPMI-7951: soft agar; for colony formation of RPMI-7951 cells (in words): nontoxic concentration of 0.5 µM; for decrease of number of colonies of RPMI-7951: 1 µM, 14 days
Protocol: as §1, §2, §3

[8] = Homo sapiens, RPMI-7951, 24 h, individual compounds, 24 h, MTS
[9] = Homo sapiens, MDA-MB-231, 24 h, individual compounds, 24 h, MTS
[10] = Homo sapiens, HT-29, 24 h, individual compounds, 24 h, MTS
[11] = Homo sapiens, HEK293, 24 h, individual compounds, 24 h, MTS
[12] = individual compounds, 24 h, MTS

Row | SMILES | colony growth of HT-29 cells (in words) [1] | colony formation of HT-29 cells (in words) [1] | colony growth of MDA-MB-231 cells (in words) [2] | colony formation of MDA-MB-231 cells (in words) [2] | IC50 [3, 8] [µM] | IC50 [4, 9] [µM] | IC50 [5, 10] [µM] | IC50 [6, 11] [µM] | colony growth of RPMI-7951 cells (in words) [7] | colony formation of RPMI-7951 cells (in words) [7] | decrease of number of colonies of HT-29 [1] [%] | decrease of number of colonies of MDA-MB-231 [2] [%] | decrease of number of colonies of RPMI-7951 [7] [%] | IC50 ([3]; Homo sapiens, RPMI-7951, 24 h) [µM] | IC50 ([4]; Homo sapiens, MDA-MB-231, 24 h) [µM] | IC50 ([5]; Homo sapiens, HT-29, 24 h) [µM] | IC50 ([6]; Homo sapiens, HEK293, 24 h) [µM] | also measured
1 | CO[C@@H]1[C@@H](O)[C@H](O[C@@H]2[C@@H](O)[C@H](O[C@H]3[C@H](O)[C@@H](O[C@@H]4OC[C@@H](O)[C@H](O)[C@H]4O)[C@H](O[C@H]4[C@H](O[C@H]5CC[C@]6(C)[C@@H]7CCC89C(=O)O[C@@](C)(CCC=C(C)C)[C@H]8[C@@H](OC(C)=O)C[C@@]9(C)C7=CC[C@H]6C5(C)C)OC[C@@H](O)[C@@H]4O)O[C@@H]3C)O[C@H](CO)[C@H]2O)OC[C@H]1O (stereo partly drawn) [Compound 3, 3β-O-{3-O-methyl-β-D-xylopyranosyl-(1→3)-β-D-glucopyranosyl-(1→4)-[β-D-xylopyranosyl-(1→2)]-β-D-quinovopyranosyl-(1→2)-β-D-xylopyranosyl}-16β-acetoxyholosta-7,24-diene] | almost completely suppressed | almost completely suppressed | almost completely suppressed | almost completely suppressed | 23.7 ± 0.4 | 6.4 ± 0.4 | 6.2 ± 0.3 | 6.7 ± 0.2 | almost completely suppressed | almost completely suppressed |  |  |  |  |  |  |  | 
2 | C=C(C)[C@H]1[C@@H]2C[C@@]3(C)C4=CC[C@H]5C(C)(C)[C@@H](O[C@@H]6OC[C@@H](O)[C@H](O)[C@H]6O[C@@H]6O[C@H](C)[C@@H](O[C@@H]7O[C@H](CO)[C@@H](O)[C@H](O[C@@H]8OC[C@@H](O)[C@H](OC)[C@H]8O)[C@H]7O)[C@H](O)[C@H]6O[C@@H]6OC[C@@H](O)[C@H](O)[C@H]6O)CC[C@]5(C)[C@@H]4CCC13C(=O)O2 [Compound 2, 3β-O-{3-O-methyl-β-D-xylopyranosyl-(1→3)-β-D-glucopyranosyl-(1→4)-[β-D-xylopyranosyl-(1→2)]-β-D-quinovopyranosyl-(1→2)-β-D-xylopyranosyl}-23,24,25,26,27-pentanorlanosta-7,20(22)-diene-18(16)-lactone] |  |  |  |  | > 20 | > 20 | > 20 | > 20 |  |  | 22 | 25 | 26 |  |  |  |  | IC50 [3, 12]: 20.4 ± 1.6 µM; IC50 [4, 12]: 21.5 ± 0.5 µM; IC50 [5, 12]: 26.2 ± 2.5 µM; IC50 [6, 12]: 28.6 ± 2.1 µM
3 | C=C(C)[C@H]1[C@@H]2C[C@@]3(C)C4=CC[C@H]5C(C)(C)[C@@H](O[C@@H]6OC[C@@H](O)[C@H](O)[C@H]6O[C@@H]6O[C@H](C)[C@@H](O[C@@H]7O[C@H](CO)[C@@H](O)[C@H](O[C@@H]8OC[C@@H](O)[C@H](OC)[C@H]8O)[C@H]7O)[C@H](O)[C@H]6O)CC[C@]5(C)[C@@H]4CCC13C(=O)O2 [Compound 6, cucumarioside A10] |  |  |  |  |  |  |  |  |  |  | 28 | 40 | 45 | 5.8 ± 2.6 | 5.5 ± 0.1 | 7.8 ± 0.7 | 6.3 ± 0.6 | 
4 | CO[C@@H]1[C@@H](O)[C@H](O[C@@H]2[C@@H](O)[C@H](O[C@H]3[C@H](O)[C@@H](O[C@@H]4OC[C@@H](O)[C@H](O)[C@H]4O)[C@H](O[C@H]4[C@H](O[C@H]5CC[C@]6(C)[C@@H]7CCC89C(=O)O[C@@](C)(/C=C\C=C(C)C)[C@H]8[C@@H](OC(C)=O)C[C@@]9(C)C7=CC[C@H]6C5(C)C)OC[C@@H](O)[C@@H]4O)O[C@@H]3C)O[C@H](CO)[C@H]2O)OC[C@H]1O (some centres unmarked) [Compound 4, cucumarioside C1] | almost completely suppressed | almost completely suppressed | almost completely suppressed | almost completely suppressed |  |  |  |  | almost completely suppressed | almost completely suppressed |  |  |  | 5.8 ± 1.2 | 3.6 ± 0.2 | 5.3 ± 0.2 | 5.5 ± 0.3 | 
